# Laboratory results from paper PMC6349357, “Computational and experimental analysis of bioactive peptide linear motifs in the integrin adhesome” (PLoS ONE, 2019).
# Tests used:
# Format in all cases: cell-based, human (healthy volunteers)
# [1] = tested on: resting platelets; assay: Platelet aggregation induced by peptide in resting washed platelets (activation); conditions: for Activation: platelet aggregation in resting platelets after 6 minutes incubation with peptide, pal-peptides 20 μM, tat-peptides 50 μM, optical density, aggregometer, mean, n>=3; for Activation / Activation, donor 20 08 13 / Activation, 5μM / Activation, 20μM / Activation, donor 14 06 13: unit assumed; for Aggregation before TRAP activation, donor h: replicate donor h; for Aggregation before TRAP activation, donor h / Aggregation before TRAP activation, donor i / Aggregation before TRAP activation, donor j: pal 20 μM, tat 50 μM; for Aggregation before TRAP activation, donor i: replicate donor i; for Aggregation before TRAP activation, donor j: replicate donor j; for Activation, donor 20 08 13: replicate 20_08_13; for Activation, donor 20 08 13 / Activation, donor 22_08_13_DONOR1 / Activation, donor 22_08_13_DONOR2 / Activation, donor 14 06 13 / Activation, donor 18_06_13 / Activation, donor 20_06_13: SDC4 peptides and controls, 20 μM; for Activation, donor 22_08_13_DONOR1: replicate 22_08_13_DONOR1; for Activation, donor 22_08_13_DONOR2: replicate 22_08_13_DONOR2; for Activation, 5μM / Activation, 20μM: S3 Table, n=3; for Activation, 5μM: peptide 5 μM; for Activation, 20μM: peptide 20 μM; for Activation, donor 14 06 13: replicate 14_06_13; for Activation, donor 18_06_13: replicate 18_06_13; for Activation, donor 18_06_13 / Activation, donor 20_06_13: in % (unit assumed); for Activation, donor 20_06_13: replicate 20_06_13
# How it was run: (§1)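 Aggregation was read by optical density at 37°C under 1100 rpm stirring. Samples were 3x10^5/μl washed human platelets, rested 45 min and supplemented with 1.8 mM calcium chloride. Peptide went in at 2 min, followed 6 min later by TRAP at an experiment-dependent concentration, with 7 min further recording.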
# [2] = tested on: TRAP-activated platelets; assay: Inhibition of TRAP-induced platelet aggregation after pre-incubation with peptide; conditions: for Aggregation after TRAP, peptide alone 1x (A 1x / B 1x) / Aggregation after TRAP, peptide alone 2x (A 2x / B 2x): TRAP 2 μM after 6 minutes pre-incubation, mean n = 3; for Aggregation after TRAP, peptide alone 1x (A 1x / B 1x): 4 μM pal-peptides, 10 μM tat-peptides; for Aggregation after TRAP, peptide alone 2x (A 2x / B 2x): double concentration of 4 μM (pal) / 10 μM (tat); for Aggregation after TRAP activation, donor h: replicate donor h; for Aggregation after TRAP activation, donor h / Aggregation after TRAP activation, donor i / Aggregation after TRAP activation, donor j: pal 20 μM, tat 50 μM; for Aggregation after TRAP activation, donor i: replicate donor i; for Aggregation after TRAP activation, donor j: replicate donor j; for Inhibition, donor 20_08_13: replicate 20_08_13; for Aggregation (inhibition effects of syndecan-derived peptides): S2 Table A, n=6; for Inhibition, donor 14_06_13: replicate 14_06_13; for Inhibition, donor 18_06_13: replicate 18_06_13; for Inhibition, donor 20_06_13: replicate 20_06_13
# How it was run: as §1
# [3] = tested on: tyrosine phosphorylation in platelets; assay: Phosphotyrosine western blot (4G10) of platelets treated with peptide; parameters: key to Phospho: R: in resting platelets; A: after TRAP activation; conditions: for Phospho: phosphorylation changes associated with peptide treatment, pal 20 μM, tat 50 μM, TRAP 4 μM
# Experimental: A platelet concentration of 3x10^5 /μl was used when performing standard aggregations and a concentration of 1x10^6 /μl was used for sample preparation for western blot analysis. The extent of platelet aggregation was measured by quantifying the optical density of the samples using the Bio-Data PAP-8 aggregometer (platelet aggregation profiler, Horsham, PA, USA). A temperature of 37°C was maintained and samples were stirred using magnets spinning at 1100 rpm. 200 μl of washed platelets was added to each aggregation tube. Different volumes of buffer, peptide and TRAP were added to achieve the desired concentrations. Peptide/buffer was added to each well after two minutes. TRAP, with a final concentration depending on the experiment, was added 6 minutes later and data was collected for an additional 7 minutes.
# After the aggregation step, tubes were immediately placed on ice. 27 μl of lysis buffer was then added and the tube was vortexed vigorously. Lysates were left on ice for one hour and vortexed frequently. Proteins were then centrifuged at 14,000 rcf for 10 minutes to remove debris. Samples were then mixed with 2x sample buffer. 50 μl each sample was added to 50 μl of sample buffer. The protein was then denatured by heating to 95°C for 5 minutes. 10 μl of lysate was kept for protein quantification. All samples and lysates were frozen at -80°C.
# The Bradford assay was then performed on the lysates to determine protein concentration. Protein concentrations were measured using the Bio-Rad DC Protein Assay. A calibration was created using samples containing a known concentration of bovine serum albumin. These were prepared in advance by sequential dilutions with final concentrations of 1.5mg/ml, 1mg/ml, 0.8mg/ml, 0.6mg/ml, 0.4mg/ml, 0.2mg/ml, 0mg/ml. Samples were then dispensed into a 96 well plate and the Bio-Rad DC reagents were added as described in the protocol. Samples were left to rest for 15 minutes and were then read using 690 0.15 mode on the Wallac plate reader. A standard curve was calculated from the standard samples of known concentration and the y = ax+b equation was used to determine the concentration of the other samples.
# Sodium Dodecyl Sulfate Polyacrylamide Gel Electrophoresis (SDS-PAGE) was performed to separate proteins by molecular weight. Polyacrylamide gels were prepared (see Reagents section). Samples or molecular markers were loaded in volumes to give 20 μg of protein. The gels were then run for approximately 80 minutes or until the samples reached the end of the gel. The proteins were then transferred to polyvinylidene difluoride (PVDF) membranes using a Bio-Rad Wet Blot Transfer Cell apparatus. During the transfer the membranes were submerged in 1x transfer buffer (10% 10x transfer buffer, 70% deionised water and 20% methanol). Transfer was performed either overnight at 40 volts at 4°C, or at 100 volts for 1 hour cooled with an ice block. After the transfer the membranes were blocked for 1 hour using 3% bovine albumin serum (BSA) dissolved in TBS-T. Membranes were incubated with 4G10 antibody with a 1:1000 dilution. Unbound primary antibody was washed off with TBS-T three times for 5 minutes each. Membranes were then incubated with anti-mouse IgG secondary antibody (Millipore) with a dilution of 1:30,000. Membranes were submerged in chemiluminescence ECL solution (Thermo Scientific). They were then measured using the western blot developer UVP. One image was taken every 80 seconds for 40 minutes. Numeric data was extracted from selected blots using ImageJ.
# [4] = platelet aggregation induced by 4 μM TRAP in platelets pre-incubated with peptide (low value = inhibition), pal-peptides 20 μM, tat-peptides 50 μM, mean, n>=3
# [5] = replicate 22_08_13_DONOR1, peptide 20 μM, TRAP 4 μM
# [6] = replicate 22_08_13_DONOR2, peptide 20 μM, TRAP 4 μM
# [7] = S3 Table, peptide 5 μM, aggregation after TRAP, n=3
# [8] = S3 Table, peptide 20 μM, aggregation after TRAP, n=3
Substance,Activation [1],"Aggregation before TRAP activation, donor h [1]","Aggregation before TRAP activation, donor i [1]","Aggregation before TRAP activation, donor j [1]","Aggregation after TRAP, peptide alone 1x (A 1x / B 1x) [2]","Aggregation after TRAP, peptide alone 2x (A 2x / B 2x) [2]","Platelet aggregation remaining after TRAP (low = inhibition) [2, 4]","Aggregation after TRAP activation, donor h ([2]; TRAP 4 μM)","Aggregation after TRAP activation, donor i ([2]; TRAP 4 μM)","Aggregation after TRAP activation, donor j ([2]; TRAP 4 μM)",Phospho [3],"Activation, donor 20 08 13 [1]","Activation, donor 22_08_13_DONOR1 [1]","Activation, donor 22_08_13_DONOR2 [1]","Inhibition, donor 20_08_13 ([2]; peptide 20 μM, TRAP 4 μM)","Platelet aggregation remaining after TRAP (low = inhibition) [2, 5]","Platelet aggregation remaining after TRAP (low = inhibition) [2, 6]","Activation, 5μM [1]","Activation, 20μM [1]","Activation, donor 14 06 13 [1]",also measured
"TLELDRLMASLSDFRVQNHLP-tat-(NH2) [TGFB1I1_LD-tat, TGFB1I1 LD motif peptide with C-terminal tat]",3%,3,4,4,67.33,65.67,66,74,59,67,R,–,–,–,–,–,–,–,–,–,–
"tat-DPMSSTYIEELGKREVTIPPKYRELLA-(NH2) [tat-CAST_1, tat peptide from calpastatin (CAST)]",3%,4,4,3,70.33,70.67,72,77,63,76,A,–,–,–,–,–,–,–,–,–,"Phosphotyrosine blot density, peptide + TRAP, Average ([3]; average of 3 replicates, tat peptide 50 µM, TRAP 4 µM): 64.53; Phosphorylation in resting platelets ([3]; in words): no effect; Phosphorylation intensity of TRAP activated platelets ([3]; in words, p = 0.03): increased the phosphorylation intensity; relative density (peptide lane to activated control), replicate 1 ([3]; replicate 1): 4.12; Phosphotyrosine blot density, peptide + TRAP, replicate 1 ([3]; replicate 1, tat peptide 50 µM, TRAP 4 µM): 80; relative density (peptide lane to activated control), replicate 2 ([3]; replicate 2): 1.42; Phosphotyrosine blot density, peptide + TRAP, replicate 2 ([3]; replicate 2, tat peptide 50 µM, TRAP 4 µM): 58.7; relative density (peptide lane to activated control), replicate 3 ([3]; replicate 3): 1.22; Phosphotyrosine blot density, peptide + TRAP, replicate 3 ([3]; replicate 3, tat peptide 50 µM, TRAP 4 µM): 54.9"
"MGYRKEDKDKS [pal-SDC4_JM Control 2, scrambled control of pal-SDC4_JM, reference compound]",–,–,–,–,–,–,–,–,–,–,–,2%,1,2,4,3,14,–,–,–,"Summary of effects of SDC4-derived palmitylated peptides and scrambled controls, 20μM ([2]; S2 Table B / S2 Fig, 20 μM, activation of resting platelets and inhibition of aggregation induced by 4 μM TRAP, in words): Inhibitor"
"tat-SVSETDDpYAEIIDE-(NH2) [tat-FAK_2, tat peptide from PTK2/FAK1, phosphorylated tyrosine]",3%,4,3,4,–,–,71,77,61,76,–,–,–,–,–,–,–,–,–,–,–
"Pal-RMKKKDEGSYD-APTNEFYA [pal-SDC4-JM U SDC4-tail, palmitylated chimeric peptide of SDC4 juxtamembrane and tail regions]",–,–,–,–,–,–,–,–,–,–,–,3%,1,2,70,62,68,2%,2%,3%,"Activation, donor 18_06_13 [1]: 2; Activation, donor 20_06_13 [1]: 2; Aggregation (inhibition effects of syndecan-derived peptides) ([2]; peptide 20 μM, TRAP 4 μM, mean): 69; Platelet aggregation remaining after TRAP (low = inhibition) [2, 7]: 63; Platelet aggregation remaining after TRAP (low = inhibition) [2, 8]: 69; Inhibition, donor 14_06_13 ([2]; peptide 20 μM, TRAP 4 μM): 75; Inhibition, donor 18_06_13 ([2]; peptide 20 μM, TRAP 4 μM): 62; Inhibition, donor 20_06_13 ([2]; peptide 20 μM, TRAP 4 μM): 81"
"Pal-LGKKPIYKK-APTNEFYA [pal-SDC4-middle U SDC4-tail, palmitylated chimeric peptide of SDC4 middle and tail regions]",–,–,–,–,–,–,–,–,–,–,–,4%,1,4,6,2,6,3%,2%,3%,"Activation, donor 18_06_13 [1]: 3; Activation, donor 20_06_13 [1]: -2; Aggregation (inhibition effects of syndecan-derived peptides) ([2]; peptide 20 μM, TRAP 4 μM, mean): 5; Platelet aggregation remaining after TRAP (low = inhibition) [2, 7]: 63; Platelet aggregation remaining after TRAP (low = inhibition) [2, 8]: 5; Inhibition, donor 14_06_13 ([2]; peptide 20 μM, TRAP 4 μM): 5; Inhibition, donor 18_06_13 ([2]; peptide 20 μM, TRAP 4 μM): 5; Inhibition, donor 20_06_13 ([2]; peptide 20 μM, TRAP 4 μM): 7"
